In PubChem BioAssay AID1919016 (Molecular Pharmacology Branch, DTP, NCI, 2023):

Test system: NCI-H196 complex spheroid growth, percent test/control
Experiment: Anticancer human tumor NCI-H196 cell line growth inhibition [AhR];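 also: seven days of drug exposure starting three days after plating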;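 as to viability, T/C: 100% = DMSO vehicle control wells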
Conditions: for IC50: curve of first compound; for viability, T/C: stronger effect = lower value
Text: Multicellular complex tumor spheroid response to aryl hydrocarbon receptor antagonists in combination with a variety of drugs and investigational agents in selected tumor cell lines
The current study was undertaken to assess response to aryl hydrocarbon receptor antagonists in combination with standard-of-care drugs and investigational agents in solid tumor complex spheroid models. Complex spheroids include a stromal component modeled by human endothelial cells (HUVEC) and fibroblasts modeled by human mesenchymal stem cells (MSCs). The concentration ranges selected for each drug and investigational agent were based upon clinically achievable concentrations if the clinical Cmax of the agent was known.
Compounds. The drugs and investigational agents: BAY 2416964 (NSC825713), GNF351 (NSC835774), CH-223191 (NSC835775), CPI-455 (NSC825282), aza-TdCyd (NSC777586), decitabine (NSC127716), belinostat (NSC758774), entinostat (NSC756642), pevonedistat (NSC761192), tazemetostat (NSC777109), talazoparib (NSC765396), olaparib (NSC753686), selinexor (NSC780203), nedisertib (M3814, NSC802822), bortezomib (NSC756655), venetoclax (NSC766270), doxorubicin (NSC123127), elimusertib (BAY189344, NSC800525), ceralasertib (AZD6738, NSC777638), TAK-243 (NSC785004), alisertib (NSC759677), etoposide (NSC141540), topotecan (NSC609699), eribulin (NSC707389), gemcitabine (NSC613327), carboplatin (NSC241240), cisplatin (NSC119875), and SN-38 (NSC673596) were obtained from the National Cancer Institute (NCI) Developmental Therapeutics Program Chemical Repository (32). The FDA-approved anticancer drug set is available from the Developmental Therapeutics Program at https://dtp.cancer.gov/organization/dscb/obtaining/available plates.htm. […] The stock solutions were prepared in dimethyl sulfoxide (DMSO, Sigma-Aldrich, St. Louis, MO, cat. D2650), except for the platinum compounds which were prepared in saline (Quality Biological, Gaithersburg, MD, cat. 114-055-101), at 800-fold the tested concentration and stored at -70 degrees C prior to their use. All drugs and investigational agents were tested over a range starting from a high concentration at or near the clinical Cmax and decreasing in half-log increments. If the clinical Cmax for an agent had not been determined, the highest concentration tested was 10 microM (Table 1).
Cell Culture. All cells were maintained in an incubator at 37 degrees C and 5% CO2 with 95% humidity. The PDC lines were cultured according to standard operating procedures established by the NCI PDMR (https://pdmr.cancer.gov). Briefly, all PDCs were thawed and cultured in Matrigel-coated flasks prepared with a working solution of 1X Ham's F-12 nutrient mix, without supplementation (Invitrogen, Waltham, MA, cat. 11765054), 100 U/mL penicillin-streptomycin (Invitrogen, cat. 15140122), and 2.5% Matrigel (Corning Inc., Corning, NY, cat. 354248) for the first three passages. All PDCs were cultured in complete DMEM/F-12 media containing advanced DMEM/F-12 (Invitrogen, cat. 12634028), 4.9% defined fetal bovine serum, heat inactivated (HyClone Laboratories Inc., Logan, UT, cat. SH30070.03HI), 389 ng/mL hydrocortisone (Sigma-Aldrich, cat. H4001), 9.7 ng/mL human EGF recombinant protein (Invitrogen, cat. PHG0313), 23.4 microg/mL adenine (Sigma-Aldrich, cat. A2786), 97.3 U/mL penicillin-streptomycin (Invitrogen, cat. 15140122), 1.9 mM L-glutamine (Invitrogen, cat. 25030081), and 9.7 microM Y-27632 dihydrochloride (Tocris Bioscience, Bristol, United Kingdom, cat. 1254). The PDCs were cultured in complete DMEM/F12 media without 10 microM Y-27632 dihydrochloride for at least two passages prior to the screen. The established cell lines NCI-H1341 and […] were cultured in DMEM/F-12, HEPES (Invitrogen, cat. 11330032), 5% defined fetal bovine serum (HyClone Laboratories Inc., cat. SH30070.03), ITS premix universal culture supplement [insulin (5 microg/mL), transferrin (5 microg/mL), and selenious acid (5 ng/mL)] […]

[1] = second compound 0.1 µM, first compound 0.0316 µM
[2] = second compound 0.1 µM, first compound 0.1 µM
[3] = second compound 0.1 µM, first compound 0.316 µM
[4] = second compound 0.1 µM, first compound 1 µM
[5] = second compound 0.1 µM, first compound 3.16 µM
[6] = second compound 0.1 µM, first compound 10 µM
[7] = second compound 0.316 µM, first compound 0.0316 µM
[8] = second compound 0.316 µM, first compound 0.1 µM
[9] = second compound 0.316 µM, first compound 0.316 µM
[10] = second compound 0.316 µM, first compound 1 µM
[11] = second compound 0.316 µM, first compound 3.16 µM
[12] = second compound 0.316 µM, first compound 10 µM
[13] = second compound 1 µM, first compound 0.0316 µM
[14] = second compound 1 µM, first compound 0.1 µM
[15] = second compound 1 µM, first compound 0.316 µM
[16] = second compound 1 µM, first compound 1 µM
[17] = second compound 1 µM, first compound 3.16 µM
[18] = second compound 1 µM, first compound 10 µM
[19] = second compound 3.16 µM, first compound 0.0316 µM
[20] = second compound 3.16 µM, first compound 0.1 µM
[21] = second compound 3.16 µM, first compound 0.316 µM
[22] = second compound 3.16 µM, first compound 1 µM
[23] = second compound 3.16 µM, first compound 3.16 µM
[24] = second compound 3.16 µM, first compound 10 µM
[25] = second compound 10 µM, first compound 0.0316 µM
[26] = second compound 10 µM, first compound 0.1 µM
[27] = second compound 10 µM, first compound 0.316 µM
[28] = second compound 10 µM, first compound 1 µM
[29] = second compound 10 µM, first compound 3.16 µM
[30] = second compound 10 µM, first compound 10 µM

Nc1ccn(C2OC(CO)C(O)C2(F)F)c(=O)n1 (stereo not given) + Cc1ccccc1N=Nc1ccc(NC(=O)c2ccnn2C)c(C)c1
IC50 (second compound 0.1 µM): > 10000 nM | IC50 (second compound 0.316 µM): > 10000 nM | IC50 (second compound 1 µM): > 10000 nM | IC50 (second compound 3.16 µM): > 10000 nM | IC50 (second compound 10 µM): > 10000 nM | viability, T/C [1]: 88.8% | viability, T/C [2]: 85.5% | viability, T/C [3]: 53.4% | viability, T/C [4]: 52.1% | viability, T/C [5]: 57.6% | viability, T/C [6]: 59.6% | viability, T/C [7]: 91.4% | viability, T/C [8]: 88.2% | viability, T/C [9]: 58.7% | viability, T/C [10]: 54% | viability, T/C [11]: 54.5% | viability, T/C [12]: 60.1% | viability, T/C [13]: 88.7% | viability, T/C [14]: 90.4% | viability, T/C [15]: 62.5% | viability, T/C [16]: 53.2% | viability, T/C [17]: 56.1% | viability, T/C [18]: 60.2% | viability, T/C [19]: 93.3% | viability, T/C [20]: 91.3% | viability, T/C [21]: 62.7% | viability, T/C [22]: 57.1% | viability, T/C [23]: 55% | viability, T/C [24]: 55.9% | viability, T/C [25]: 85.2% | viability, T/C [26]: 90.8% | viability, T/C [27]: 75.9% | viability, T/C [28]: 61.9% | viability, T/C [29]: 60.1% | viability, T/C [30]: 64.3%

CCN(c1cc(-c2ccc(CN3CCOCC3)cc2)cc(C(=O)NCc2c(C)cc(C)[nH]c2=O)c1C)C1CCOCC1 + CC(CO)NC(=O)c1cc(-c2ccc(Cl)cc2)nn(-c2cnn(C)c2)c1=O
IC50 (second compound 0.1 µM): > 3000 nM | IC50 (second compound 0.316 µM): > 3000 nM | IC50 (second compound 1 µM): > 3000 nM | IC50 (second compound 3.16 µM): > 3000 nM | IC50 (second compound 10 µM): > 3000 nM | viability, T/C (second compound 0.1 µM, first compound 0.00949 µM): 111% | viability, T/C (second compound 0.1 µM, first compound 0.03 µM): 111% | viability, T/C (second compound 0.1 µM, first compound 0.0949 µM): 105% | viability, T/C (second compound 0.1 µM, first compound 0.3 µM): 108% | viability, T/C (second compound 0.1 µM, first compound 0.949 µM): 111% | viability, T/C (second compound 0.1 µM, first compound 3 µM): 107% | viability, T/C (second compound 0.316 µM, first compound 0.00949 µM): 123% | viability, T/C (second compound 0.316 µM, first compound 0.03 µM): 118% | viability, T/C (second compound 0.316 µM, first compound 0.0949 µM): 105% | viability, T/C (second compound 0.316 µM, first compound 0.3 µM): 111% | viability, T/C (second compound 0.316 µM, first compound 0.949 µM): 118% | viability, T/C (second compound 0.316 µM, first compound 3 µM): 121% | viability, T/C (second compound 1 µM, first compound 0.00949 µM): 112% | viability, T/C (second compound 1 µM, first compound 0.03 µM): 116% | viability, T/C (second compound 1 µM, first compound 0.0949 µM): 113% | viability, T/C (second compound 1 µM, first compound 0.3 µM): 117% | viability, T/C (second compound 1 µM, first compound 0.949 µM): 118% | viability, T/C (second compound 1 µM, first compound 3 µM): 118% | viability, T/C (second compound 3.16 µM, first compound 0.00949 µM): 121% | viability, T/C (second compound 3.16 µM, first compound 0.03 µM): 112% | viability, T/C (second compound 3.16 µM, first compound 0.0949 µM): 121% | viability, T/C (second compound 3.16 µM, first compound 0.3 µM): 112% | viability, T/C (second compound 3.16 µM, first compound 0.949 µM): 123% | viability, T/C (second compound 3.16 µM, first compound 3 µM): 108% | viability, T/C (second compound 10 µM, first compound 0.00949 µM): 120% | viability, T/C (second compound 10 µM, first compound 0.03 µM): 127% | viability, T/C (second compound 10 µM, first compound 0.0949 µM): 123% | viability, T/C (second compound 10 µM, first compound 0.3 µM): 115% | viability, T/C (second compound 10 µM, first compound 0.949 µM): 115% | viability, T/C (second compound 10 µM, first compound 3 µM): 124%

O=C(C=Cc1cccc(S(=O)(=O)Nc2ccccc2)c1)NO + Cc1ccccc1N=Nc1ccc(NC(=O)c2ccnn2C)c(C)c1
IC50 (second compound 0.1 µM): 1480 nM | IC50 (second compound 0.316 µM): 1760 nM | IC50 (second compound 1 µM): 1720 nM | IC50 (second compound 3.16 µM): 1870 nM | IC50 (second compound 10 µM): 2030 nM | viability, T/C [1]: 93% | viability, T/C [2]: 100% | viability, T/C [3]: 87.8% | viability, T/C [4]: 62% | viability, T/C [5]: 25.5% | viability, T/C [6]: 0.66% | viability, T/C [7]: 92.7% | viability, T/C [8]: 96.5% | viability, T/C [9]: 104% | viability, T/C [10]: 69.9% | viability, T/C [11]: 27.4% | viability, T/C [12]: 0.67% | viability, T/C [13]: 102% | viability, T/C [14]: 94.5% | viability, T/C [15]: 90.4% | viability, T/C [16]: 74.2% | viability, T/C [17]: 23.7% | viability, T/C [18]: 3.01% | viability, T/C [19]: 93.6% | viability, T/C [20]: 91.9% | viability, T/C [21]: 91.1% | viability, T/C [22]: 72% | viability, T/C [23]: 31.3% | viability, T/C [24]: 1.68% | viability, T/C [25]: 87.9% | viability, T/C [26]: 90.8% | viability, T/C [27]: 81.6% | viability, T/C [28]: 72.4% | viability, T/C [29]: 36.4% | viability, T/C [30]: 0.98%
